Measurements published in ChEMBL document CHEMBL1151587, “Development of new non-peptide GPIIb/IIIa antagonists, NSL-95315 and NSL-95317, isosteres of NSL-95300” (Bioorg Med Chem Lett, 1997).

species on record: Homo sapiens; experiment: Concentration required to inhibit collagen-induced platelet aggregation in human platelet rich plasma (PRP); type: functional

SMILES	IC50 [nM]
CC(C)(CCC(=O)c1ccc(C(=N)N)cc1)C(=O)N1CCC(CC(=O)O)CC1	630
COC(CCc1ccc(C(=N)N)cc1)C(C)(C)C(=O)N1CCC(CC(=O)O)CC1 (configuration not stated)	480
CC(C)(/C=C/C(O)c1ccc(C(=N)N)cc1)C(=O)N1CCC(CC(=O)O)CC1 (configuration not stated)	7600
CC(C)(/C=C/C(=O)c1ccc(C(=N)N)cc1)C(=O)N1CCC(CC(=O)O)CC1	210
CC(C)(C(=O)N1CCC(CC(=O)O)CC1)/C(O)=C/C(=O)c1ccc(C(=N)N)cc1	600000

Continued, values first:

IC50 [nM]	SMILES
600	CC(C)(C(=O)N1CCC(CC(=O)O)CC1)C(O)/C=C/c1ccc(C(=N)N)cc1 (configuration not stated)
3500	CC(C)(C(=O)/C=C/c1ccc(C(=N)N)cc1)C(=O)N1CCC(CC(=O)O)CC1
1600	CCCCCCOC(/C=C/c1ccc(C(=N)N)cc1)C(C)(C)C(=O)N1CCC(CC(=O)O)CC1 (configuration not stated)
260	CCOC(/C=C/c1ccc(C(=N)N)cc1)C(C)(C)C(=O)N1CCC(CC(=O)O)CC1 (configuration not stated)
730	CC(C)(C(=O)N1CCC(CC(=O)O)CC1)C(/C=C/c1ccc(C(=N)N)cc1)OCc1ccccc1 (configuration not stated)
250	COC(/C=C/c1ccc(C(=N)N)cc1)C(C)(C)C(=O)N1CCC(CC(=O)O)CC1 (configuration not stated)
270	C#CCOC(/C=C/c1ccc(C(=N)N)cc1)C(C)(C)C(=O)N1CCC(CC(=O)O)CC1 (configuration not stated)
